The values below come from patent US20260285879A1, “CDK INHIBITOR AND CRYSTAL FORM OF PHARMACEUTICALLY ACCEPTABLE SALT THEREOF, AND USE THEREOF” (priority 2023, published 2026).

Assay type in all cases: physicochemical
Data set [1] is described as follows: Accelerated stability testing. The note with it: 40° C.±2° C./75%±5% RH. How it is done: (2) Accelerated Stability Testing
(§1) Packaging: Simulated the commercial packaging (using a pharmaceutical-grade low-density polyethylene bag as the inner packaging and a polyester/aluminum/polyethylene composite bag for pharmaceutical packaging as the outer packaging)
Investigation conditions: 40° C.±2° C./75%±5% RH

A short description of data set [2]: Long-term stability testing. The note with it: 25° C.±2° C./60%±5% RH. How it is done:
(3) Long-Term Stability Testing
as §1
Investigation conditions: 25° C.±2° C./60%±5% RH

The nature of data set [3]: Competition experiment between anhydrates and solvates and solvent activity experiment.
Data set [4] can be described thus: Dynamic vapor sorption (DVS). The method, then: 4. Dynamic Vapor Sorption (DVS)
Instrument: TA Instruments Q5000 SA
Detection method: 20 to 50 mg of the sample was placed in a tared sample basket and automatically weighed, and DVS testing was performed according to the parameters in Table 7: Step Time: 60 min; Equilibration Time per RH %: 1 hour; Total Gas Flow Rate: 200 sccm; Gradient mode: 0%-90%-0% humidity variation, with a humidity variation amount of 10% for each gradient level between 0% and 90%, and gradient endpoint was determined by dm/dt<0.01% maintained for 10 minutes.

The nature of data set [5]: Stability test, placed open 7 days (HPLC purity, XRPD); grinding or crushing. Conditions: for remaining at […]: solid state, open, 7 days, read-out: Purity (Peak area %) 7 days. An excerpt:
Subsequently, the samples after 7 days were respectively detected by HPLC and XRPD to determine their chemical and physical stabilities.

The nature of data set [6]: Stress testing (high temperature, high humidity, illumination). The note with it: for remaining at […] / remaining at 336 h / remaining at 720 h: read-out: Content.
[7] abbreviates: 60° C., 92.5% RH and 40° C./75% RH for 7 days.
Where [8] appears, read: High Humidity (92.5% RH), 7 days.
[9] abbreviates: High Humidity (92.5% RH), 14 days.
[10] abbreviates: High Humidity (92.5% RH), 30 days.
[11] abbreviates: High Temperature (60° C.), 7 days.
The mark [12] stands for this setting: High Temperature (60° C.), 14 days.
[13] abbreviates: High Temperature (60° C.), 30 days.
The mark [14] stands for this setting: Illumination Testing 45001x ± 5001x, 7 days.
Where [15] appears, read: Illumination Testing 45001x ± 5001x, 14 days.
Where [16] appears, read: Illumination Testing 45001x ± 5001x, 30 days.

The structures appear in SMILES notation. Where two headings read alike, the source gives them in different places.

Consider `CC(=O)c1c(C)c2cnc(Nc3ccc4c(c3)OC[C@@H]3CN(C5CCN(C)CC5)CCN43)nc2n(C2CCCC2)c1=O` [listing 1 of 4 here], for which the “Description Appearance” value in data set [1] (0 months), in data set [1] (1 month), in data set [1] (2 months), in data set [1] (3 months), in data set [1] (6 months) and in data set [2] (0 months) was “Yellow” in each case. For the same compound, the “Description Appearance” value in data set [2] (3 months), in data set [2] (6 months), in data set [2] (9 months), in data set [2] (12 months) and in data set [2] (18 months) was “Yellow solid” each time. Moreover, the Total impurities is 0.84% in data set [1] (0 months); 0.80% in data set [1] (1 month); 0.82% in data set [1] (2 months); 0.85% in data set [1] (3 months); 0.77% in data set [1] (6 months); 0.84% in data set [2] (0 months). Also, the Total impurities turned out to be 0.89% in data set [2] (3 months); 0.75% in data set [2] (6 months); 0.73% in data set [2] (9 months); 0.78% in data set [2] (12 months); 0.71% in data set [2] (18 months). Further, the crystalline form result is given as “crystalline” in data set [1] (0 months); “Unchanged” in data set [1] (3 months); “Unchanged” in data set [1] (6 months); “crystalline” in data set [2] (0 months); “Unchanged” in data set [2] (3 months); “Unchanged” in data set [2] (6 months). Besides, the crystalline form result in data set [2] (9 months), in data set [2] (12 months) and in data set [2] (18 months) was “Unchanged” each time. Also, the loss on drying in data set [1] (0 months) is 0.03%; in data set [1] (1 month), 0.04%; in data set [1] (2 months), 0.02%; in data set [1] (3 months), 0.02%; in data set [1] (6 months), 0.08%; in data set [2] (0 months), 0.03%. For the same compound, the loss on drying in data set [2] (3 months) is given as 0.02%; in data set [2] (6 months), 0.05%; in data set [2] (9 months), 0.05%; in data set [2] (12 months) it was 0.05%; in data set [2] (18 months), 0.03%. Besides, the remaining at 720 h in data set [1] (solid, 75% rh storage, 1 month, read-out: Measured content) amounted to 100%. In addition, the remaining at 1440 h in data set [1] (solid, 75% rh storage, 2 months, read-out: Measured content) is 101%. The remaining at 2160 h in data set [1] (solid, 75% rh storage, 3 months, read-out: Measured content) stood at 101%; in data set [2] (solid, 60% rh storage, 3 months, read-out: Measured content), 101%. Moreover, the remaining at 4320 h worked out at 101% in data set [1] (solid, 75% rh storage, 6 months, read-out: Measured content) and 101% in data set [2] (solid, 60% rh storage, 6 months, read-out: Measured content). For the same compound, the remaining at 6480 h in data set [2] (solid, 60% rh storage, 9 months, read-out: Measured content) is 99.6%. Moreover, in data set [2] (solid, 60% rh storage, 12 months, read-out: Measured content), the remaining at 8640 h turned out to be 101%. The remaining at 12960 h in data set [2] (solid, 60% rh storage, 18 months, read-out: Measured content) is 98.7%.

Regarding `CC(=O)c1c(C)c2cnc(Nc3ccc4c(c3)OC[C@@H]3CN(C5CCN(C)CC5)CCN43)nc2n(C2CCCC2)c1=O` [listing 2 of 4 here], the “Test Results (crystalline form by XRPD)” value is reported as “crystalline form A-I” in data set [3] (solvent activity experiment, 20% Trifluoroethanol (v/v)); “crystalline form A-I” in data set [3] (solvent activity experiment, 50% Trifluoroethanol (v/v)); “crystalline form A-II” in data set [3] (solvent activity experiment, 80% Trifluoroethanol (v/v)).

For `CC(=O)c1c(C)c2cnc(Nc3ccc4c(c3)OC[C@@H]3CN(C5CCN(C)CC5)CCN43)nc2n(C2CCCC2)c1=O` [listing 3 of 4 here], the “Test Results (crystalline form by XRPD)” value is “crystalline form A-I” in data set [3] (solvent activity experiment, 20% Dimethyl sulfoxide (v/v)); “crystalline form A-I” in data set [3] (solvent activity experiment, 50% Dimethyl sulfoxide (v/v)); “crystalline form A-I” in data set [3] (solvent activity experiment, 80% Dimethyl sulfoxide (v/v)).

Take `CC(=O)c1c(C)c2cnc(Nc3ccc4c(c3)OC[C@@H]3CN(C5CCN(C)CC5)CCN43)nc2n(C2CCCC2)c1=O` [listing 4 of 4 here]: the “Test Results (crystalline form by XRPD)” value was “crystalline form A-I” in data set [3] (competition experiment, n-Butanol, room temperature) and “crystalline form A-I” in data set [3] (competition experiment, n-Butanol/Anisole (v:v = 1:1), room temperature).

`CC(=O)c1c(C)c2cnc(Nc3ccc4c(c3)OC[C@@H]3CN(C5CCN(C)CC5)CCN43)nc2n(C2CCCC2)c1=O` [crystalline form A-I]: the “hygroscopicity (DVS)” value in data set [4] (0%-90% RH) was “non-hygroscopic”. In data set [4] (across 0%-90% RH), the “weight change (DVS)” value was “approximately 0.17%”. For the same compound, in data set [5] (0 day), the “Purity (Peak area %) 0 day” value worked out at 99.16 Peak area %. The “chemical stability (HPLC)” value in data set [5] (setting [7]) was “chemically stable”. Besides, in data set [5] (setting [7]), the “crystalline form by XRPD after 7 days under the three conditions” value is recorded as “remained unchanged”. For the same compound, the “crystalline form after grinding or crushing” value in data set [5] (grinding or crushing) is listed as “remained unchanged”. Besides, the remaining at […] turned out to be 99.2% in data set [5] (40° C./75% RH); 99.2% in data set [5] (60° C.); 99.2% in data set [5] (92.5% RH); 100% in data set [6] (setting [8]); 100% in data set [6] (setting [11]); 101% in data set [6] (setting [14]). Also, the “Description Appearance” value in data set [6] (0 Day), in data set [6] (setting [8]), in data set [6] (setting [9]), in data set [6] (setting [10]), in data set [6] (setting [11]) and in data set [6] (setting [12]) was “Yellow” in each case. Besides, the “Description Appearance” value in data set [6] (setting [13]), in data set [6] (setting [14]), in data set [6] (setting [15]) and in data set [6] (setting [16]) was “Yellow” in each case. The crystalline form result in data set [6] (0 Day) is on record as “crystalline”; in data set [6] (setting [16]), “Unchanged”. Also, the results for the remaining at 336 h in data set [6] (setting [9]), in data set [6] (setting [12]) and in data set [6] (setting [15]) were 99.6%, 101% and 100%, respectively. Besides, the values for the remaining at 720 h in data set [6] (setting [10]), in data set [6] (setting [13]) and in data set [6] (setting [16]) were 101%, 100% and 100%, respectively. The Total impurities in data set [6] (setting [14]) is 0.76%; in data set [6] (setting [15]), 0.79%; in data set [6] (setting [16]) it was 0.84%. For the same compound, the loss on drying in data set [6] (setting [14]) was 0.07%; in data set [6] (setting [15]), 0.06%; in data set [6] (setting [16]), 0.07%. Also, the “change in the description” value in data set [6] (all stress test conditions) is “no significant change”. Besides, the “change in the hygroscopic weight gain” value in data set [6] (high-humidity conditions) is listed as “no significant change”. In addition, the “relevant substances compared with 0 month” value in data set [6] (high-humidity conditions) is listed as “remained unchanged”. The “change in relevant substances” value in data set [6] (high-temperature conditions) is “no significant change”.

As to `CC(=O)c1c(C)c2cnc(Nc3ccc4c(c3)OC[C@@H]3CN(C5CCN(C)CC5)CCN43)nc2n(C2CCCC2)c1=O` [crystalline form F], the “XRPD pattern / crystalline form after the DVS test” value in data set [4] (after DVS test) is reported as “did not change”. Further, the “moisture absorption (DVS)” value in data set [4] (at 80% RH) is “approximately 3.8%”.
